# From patent US20140088144A1, “INHIBITING MICROBIAL INFECTIONS” (THE UNIVERSITY OF KANSAS, priority 2012, published 2014)
# What was measured:
# MBP-Rns = molecular target: T1, MBP-Rns (Escherichia coli, UniProt P16114); test: EMSA in vitro DNA binding by MBP-Rns; type: biochemical, Enterotoxigenic E. coli
# T1 construct: made in house
# Text: FIGS. 9A-9B show inhibition of MBP-Rns and MBP-VirF by Compound 1. Quantification of EMSA of MBP-Rns (FIG. 9A) or example EMSA of MBP-VirF (FIG. 9B) DNA binding with the indicated inhibitor concentrations [micromolar]. F is Free DNA.
# The compounds of the invention can be used for inhibition of virulence in vivo and in vitro activation by Rns and VirF.
# CRP = molecular target: T2, CRP (Escherichia coli, UniProt P0ACJ8); test: EMSA in vitro DNA binding by CRP; type: biochemical, E. coli; conditions: 1.3 mM compound
# T2 construct: made in house; host or cells: E. coli
# T2 sequence (P0ACJ8 2-210): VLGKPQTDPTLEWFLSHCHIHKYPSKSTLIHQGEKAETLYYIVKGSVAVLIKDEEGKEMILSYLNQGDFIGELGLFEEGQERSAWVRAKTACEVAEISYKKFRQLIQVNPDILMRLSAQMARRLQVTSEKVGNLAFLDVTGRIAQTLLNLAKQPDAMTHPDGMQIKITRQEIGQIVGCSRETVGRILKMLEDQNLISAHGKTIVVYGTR
# Text: All proteins for this study were expressed in E. coli. Untagged CRP was purified by Ni^2+-affinity chromatography as described. Lad protein was purified by ammonium sulfate precipitation and phosphocellulose column chromatography as described. RhaS-GB1^201b and GB1^b-RhaR were purified by Ni^2+-affinity chromatography. Briefly, plasmids derived from pET21 and expressing RhaS-GB1^201b and GB1^b-RhaR were transformed into competent cells of strains Acella™ (MoBiTec, Gottingen, Germany) or ArcticExpress(DE3) (Agilent Technologies, Santa Clara Calif.), respectively. The cells were grown in 1 liter TY plus ampicillin and rhamnose. Gentamycin was also added for GB1^b-RhaR. The cells were grown to OD600 of 0.5, transferred to a 15° C. shaker, 0.1 mM IPTG was added, and then incubated overnight. Cells were harvested by centrifugation and then resuspended in 30 mL of cold binding buffer (20 mM Tris, 500 mM NaCl, 5 mM imidazole, pH 7.9) plus L-rhamnose. […]
# IRD700- and DY682-labeled oligos were from Eurofins MWG Operon. […] EMSA gels were imaged using an Odyssey infrared imager (LI-COR, Lincoln, Nebr.), and quantified using the Odyssey software, version 3.0.30. […] Inhibition values were calculated and graphs were drawn as for in vivo dose-response experiments.
# L-929 cells = test: AlamarBlue metabolic activity / viability assay; type: cell-based, mouse
# Method: AlamarBlue® assays were performed as a control to test whether SE-1 had any impact on the metabolic activity of the host cells, as follows: L-929 cells were seeded into 96-well plates and grown overnight to ˜90% confluency. SE-1 was serially diluted in RPMI supplemented with 10 μg/ml gentamycin and 5% FBS, added to the wells, and incubated at 37° C. for 3 h. Cells were washed with 200 μl Hank's buffered salt solution (Mediatech) and incubated with 200 μl RPMI (without phenol red) containing 10% AlamarBlue® (also known as Resazurin, Invitrogen, Grand Island, N.Y.). Following 8 h incubation at 37° C., the absorbance was measured at 570 nm and 600 nm using a PowerWave XS plate reader, and the metabolic activity of the cells (as a percentage of untreated controls) was calculated using the following formula provided by the manufacturer: (117,216×A570−80,586×A600)/(117,216×A′570−80,586×A′600)×100, where A is the absorbance of test wells, and A′ is the absorbance of positive control wells (mock-infection).
# T1 sequence (P16114 whole entry): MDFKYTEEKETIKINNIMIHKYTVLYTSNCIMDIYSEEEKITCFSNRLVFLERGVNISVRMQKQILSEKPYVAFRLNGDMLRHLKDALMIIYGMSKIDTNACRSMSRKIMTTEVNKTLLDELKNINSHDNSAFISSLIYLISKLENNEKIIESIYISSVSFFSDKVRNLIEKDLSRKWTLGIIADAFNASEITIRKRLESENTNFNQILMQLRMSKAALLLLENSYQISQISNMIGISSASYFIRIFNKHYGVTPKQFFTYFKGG
structure (smiles),measurement,setting,value
"CCCCN1C=C(c2ccc3ccccc3n2)C(C[N+](=O)[O-])c2ccccc21 (stereo not shown) [Compound 1, 1-butyl-4-(nitromethyl)-3-quinolin-2-yl-4H-quinoline]",inhibition of in vitro DNA binding by purified Rns,MBP-Rns,similarly inhibits
same,CRP DNA binding retained,CRP,approximately 94%
same,host cell viability,L-929 cells; 40 μM SE-1,no effect
same,viability of L-929 cells,L-929 cells; 0.2 and 0.4 μM SE-1,did not detectably decrease the viability
